Measured values as given in PubChem BioAssay AID1963841 (Molecular Pharmacology Branch, DTP, NCI, 2024).

Tested on: 439559-082-T-J2-PDC spheroid viability
Experiment: Anticancer human tumor 439559-082-T-J2-PDC patient-derived colon adenocarcinoma cell line growth inhibition [POLQ]
Conditions: spheroids with HUVEC and MSC; for IC50: curve of first compound; for viability, T/C: stronger effect = lower value
Method in brief: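 Growth inhibition in 3D: complex spheroids (tumor PDC, HUVEC, MSC) treated with POLQ inhibitor combinations; where Cmax unknown, highest tested concentration 10 microM, except SN-38 at 1 microM.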

[1] = second compound 0.0316 µM, first compound 0.0316 µM
[2] = second compound 0.0316 µM, first compound 0.1 µM
[3] = second compound 0.0316 µM, first compound 0.316 µM
[4] = second compound 0.0316 µM, first compound 1 µM
[5] = second compound 0.0316 µM, first compound 3.16 µM
[6] = second compound 0.0316 µM, first compound 10 µM
[7] = second compound 0.1 µM, first compound 0.0316 µM
[8] = second compound 0.1 µM, first compound 0.1 µM
[9] = second compound 0.1 µM, first compound 0.316 µM
[10] = second compound 0.1 µM, first compound 1 µM
[11] = second compound 0.1 µM, first compound 3.16 µM
[12] = second compound 0.1 µM, first compound 10 µM
[13] = second compound 0.316 µM, first compound 0.0316 µM
[14] = second compound 0.316 µM, first compound 0.1 µM
[15] = second compound 0.316 µM, first compound 0.316 µM
[16] = second compound 0.316 µM, first compound 1 µM
[17] = second compound 0.316 µM, first compound 3.16 µM
[18] = second compound 0.316 µM, first compound 10 µM
[19] = second compound 1 µM, first compound 0.0316 µM
[20] = second compound 1 µM, first compound 0.1 µM
[21] = second compound 1 µM, first compound 0.316 µM
[22] = second compound 1 µM, first compound 1 µM
[23] = second compound 1 µM, first compound 3.16 µM
[24] = second compound 1 µM, first compound 10 µM
[25] = second compound 3.16 µM, first compound 0.0316 µM
[26] = second compound 3.16 µM, first compound 0.1 µM
[27] = second compound 3.16 µM, first compound 0.316 µM
[28] = second compound 3.16 µM, first compound 1 µM
[29] = second compound 3.16 µM, first compound 3.16 µM
[30] = second compound 3.16 µM, first compound 10 µM
[31] = second compound 10 µM, first compound 0.0316 µM
[32] = second compound 10 µM, first compound 0.1 µM
[33] = second compound 10 µM, first compound 0.316 µM
[34] = second compound 10 µM, first compound 1 µM
[35] = second compound 10 µM, first compound 3.16 µM
[36] = second compound 10 µM, first compound 10 µM
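Note: spheroids exposed to compounds for seven days before readout.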
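Throughout, for viability, T/C: 100% = DMSO vehicle control viability.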

Work on `C=CC(=O)N1CCN(c2nc(=O)n(-c3c(C)ccnc3C(C)C)c3nc(-c4c(O)cccc4F)c(F)cc23)C(C)C1` (stereo unspecified) + Nc1ccc(C#CCN(C(=O)Cc2ncc(C(F)(F)F)cc2C(F)(F)F)c2ccc(F)cc2)nn1 yielded an IC50 (second compound 0.0316 µM) of over 10 µM, an IC50 (second compound 0.1 µM) of over 10 µM and an IC50 (second compound 0.316 µM) of over 10 µM. The IC50 (second compound 1 µM) was over 10 µM, the IC50 (second compound 3.16 µM) was over 10 µM and the IC50 (second compound 10 µM) was over 10 µM. The viability, T/C [1] was 105%, the viability, T/C [2] was 100% and the viability, T/C [3] was 91.2%. It also gave a viability, T/C [4] of 94.5%, a viability, T/C [5] of 123% and a viability, T/C [6] of 104%. It also gave a viability, T/C [7] of 109%, a viability, T/C [8] of 88.9% and a viability, T/C [9] of 83.6%. For the same compound, the viability, T/C [10] was 98.1%, the viability, T/C [11] was 115% and the viability, T/C [12] was 99.2%. For the same compound, the viability, T/C [13] was 97.4%, the viability, T/C [14] was 95.7% and the viability, T/C [15] was 99.1%. For the same compound, the viability, T/C [16] was 99.1%, the viability, T/C [17] was 131% and the viability, T/C [18] was 100%. For the same compound, the viability, T/C [19] was 91.6%, the viability, T/C [20] was 97.1% and the viability, T/C [21] was 86.3%. For the same compound, the viability, T/C [22] was 100%, the viability, T/C [23] was 123% and the viability, T/C [24] was 99.1%. It also gave a viability, T/C [25] of 100%, a viability, T/C [26] of 90.3% and a viability, T/C [27] of 99.5%. It also gave a viability, T/C [28] of 98.7%, a viability, T/C [29] of 101% and a viability, T/C [30] of 89.5%. It also gave a viability, T/C [31] of 99.1%, a viability, T/C [32] of 96.1% and a viability, T/C [33] of 87.2%. It also gave a viability, T/C [34] of 94.7%, a viability, T/C [35] of 116% and a viability, T/C [36] of 95.3%.

`CCc1cc2c(N3CCc4c(cc(Cn5ccnc5)cc4-c4cn(C)nc4C(F)(F)F)C3=O)ccnc2c(OC)n1` + Cc1cccc(N(C)C(=O)C2C(O)CCN2c2nc(C)cc(C(F)(F)F)c2C#N)c1 showed an IC50 (second compound 0.0316 µM) of over 10 µM, an IC50 (second compound 0.1 µM) of over 10 µM and an IC50 (second compound 0.316 µM) of over 10 µM. The IC50 (second compound 1 µM) was over 10 µM, the IC50 (second compound 3.16 µM) was over 10 µM and the IC50 (second compound 10 µM) was over 10 µM. The viability, T/C [1] was 98%, the viability, T/C [2] was 95.5% and the viability, T/C [3] was 101%. It also gave a viability, T/C [4] of 97.1%, a viability, T/C [5] of 93.1% and a viability, T/C [6] of 87%. The viability, T/C [7] was 126%, the viability, T/C [8] was 96.4% and the viability, T/C [9] was 90.6%. For the same compound, the viability, T/C [10] was 92.5%, the viability, T/C [11] was 95.2% and the viability, T/C [12] was 89.4%. For the same compound, the viability, T/C [13] was 105%, the viability, T/C [14] was 109% and the viability, T/C [15] was 102%. It also gave a viability, T/C [16] of 98%, a viability, T/C [17] of 98.8% and a viability, T/C [18] of 83.7%. The viability, T/C [19] was 101%, the viability, T/C [20] was 104% and the viability, T/C [21] was 85.1%. For the same compound, the viability, T/C [22] was 93.7%, the viability, T/C [23] was 93% and the viability, T/C [24] was 90.2%. The viability, T/C [25] was 115%, the viability, T/C [26] was 106% and the viability, T/C [27] was 83.3%. It also gave a viability, T/C [28] of 92.2%, a viability, T/C [29] of 103% and a viability, T/C [30] of 96.1%. The viability, T/C [31] was 94.9%, the viability, T/C [32] was 87% and the viability, T/C [33] was 99.5%. The viability, T/C [34] was 89.3%, the viability, T/C [35] was 91.7% and the viability, T/C [36] was 77.3%.

For `COc1cccc(OCCCN)c1-c1cc(Nc2cnc(C#N)cn2)n[nH]1` + Cc1cccc(N(C)C(=O)C2C(O)CCN2c2nc(C)cc(C(F)(F)F)c2C#N)c1, the IC50 (second compound 0.0316 µM) was 0.274 µM, the IC50 (second compound 0.1 µM) was 0.319 µM and the IC50 (second compound 0.316 µM) was 0.299 µM. The IC50 (second compound 1 µM) was 0.398 µM, the IC50 (second compound 3.16 µM) was 0.291 µM and the IC50 (second compound 10 µM) was 0.15 µM. The viability, T/C (second compound 0.0316 µM, first compound 0.00316 µM) was 99.3%, the viability, T/C (second compound 0.0316 µM, first compound 0.01 µM) was 99.7% and the viability, T/C [1] was 71%. The viability, T/C [2] was 77.9%, the viability, T/C [3] was 44.8% and the viability, T/C [4] was 18.5%. It also gave a viability, T/C (second compound 0.1 µM, first compound 0.00316 µM) of 100%, a viability, T/C (second compound 0.1 µM, first compound 0.01 µM) of 74.7% and a viability, T/C [7] of 71.1%. For the same compound, the viability, T/C [8] was 78.1%, the viability, T/C [9] was 49.5% and the viability, T/C [10] was 19.9%. It also gave a viability, T/C (second compound 0.316 µM, first compound 0.00316 µM) of 104%, a viability, T/C (second compound 0.316 µM, first compound 0.01 µM) of 83.8% and a viability, T/C [13] of 84.8%. For the same compound, the viability, T/C [14] was 68.7%, the viability, T/C [15] was 51% and the viability, T/C [16] was 19.8%. For the same compound, the viability, T/C (second compound 1 µM, first compound 0.00316 µM) was 110%, the viability, T/C (second compound 1 µM, first compound 0.01 µM) was 94.2% and the viability, T/C [19] was 82.5%. It also gave a viability, T/C [20] of 77.5%, a viability, T/C [21] of 64.2% and a viability, T/C [22] of 20.9%. It also gave a viability, T/C (second compound 3.16 µM, first compound 0.00316 µM) of 87.6%, a viability, T/C (second compound 3.16 µM, first compound 0.01 µM) of 102% and a viability, T/C [25] of 81.7%. It also gave a viability, T/C [26] of 74.9%, a viability, T/C [27] of 48.1% and a viability, T/C [28] of 19.4%. The viability, T/C (second compound 10 µM, first compound 0.00316 µM) was 101%, the viability, T/C (second compound 10 µM, first compound 0.01 µM) was 86.9% and the viability, T/C [31] was 94.5%. It also gave a viability, T/C [32] of 63.2%, a viability, T/C [33] of 25.1% and a viability, T/C [34] of 16.2%.
